{"source": "patent US5252718A", "about": "“Fibroblast growth factor antagonists” (The Salk Institute for Biological Studies, priority 1992, dated 1993)", "key": {"[1]": {"system": "BAAE cells", "type": "cell-based, bovine", "details": "for reducing cell population, bFGF-stimulated endothelial cell growth / reducing cell population, basal endothelial cell growth: manner of Example II, concentration not given", "method": "To determine the effectiveness of the bFGF fragment peptide to inhibit the growth of endothelial cells, the peptide is tested under conditions to measure its ability to modulate both basal cell growth and bFGF-simulated cell proliferation. A bioassay was employed of the type set forth in detail in Gospodarowicz et al., J. Cell Biol., 122, 323-333 (1985), using BAAE cells.\nFor each test, an initial cell density of between about 0.3-0.5×10^4 cells per well was established in 24-miniwell plates. After 6-8 hours, the cells in each well were treated with a challenge dose of bFGF in the absence, or presence to a varying concentration, of a synthetic FGF antagonist. The precise treatment was repeated 48 hours later. On the fifth day, the cells were digested with trypsin, and the total number of cells in each well was determined using a Coulter particle counter."}, "[2]": {"assay": "Binding to [^3 H]-heparin", "details": "result in words"}, "[3]": {"system": "FGF receptors of BHK cells", "details": "result in words"}}, "note": "Square brackets hold non-standard residues; d marks the D form. Ends that are not written are not given here. Peptide text beside a SMILES is read from it. Sar = CNCC(=O)O", "data": [{"molecule": "CC[C@H](C)[C@H](NC(=O)[C@H](CO)NC(=O)[C@@H](NC(=O)[C@@H](NC(=O)CNC(=O)[C@H](CCCNC(=N)N)NC(=O)[C@H](CCC(=O)O)NC(=O)[C@H](CCC(=O)O)NC(=O)[C@H](C)NC(=O)[C@H](CCC(N)=O)NC(=O)[C@H](CC(C)C)NC(=O)[C@H](CCC(N)=O)NC(=O)[C@H](CC(C)C)NC(=O)[C@H](CCCCN)NC(=O)[C@@H](NC(=O)[C@H](Cc1c[nH]cn1)NC(=O)[C@@H]1CCCN1C(=O)[C@H](CC(=O)O)NC(=O)[C@H](CO)NC(=O)[C@H](CCCCN)NC(=O)[C@H](CCC(=O)O)NC(=O)[C@H](CCCNC(=N)N)NC(=O)[C@@H](NC(=O)CN(C)C(=O)[C@H](CC(=O)O)NC(=O)[C@@H](NC(=O)[C@H](CCCNC(=N)N)NC(=O)CNC(=O)[C@H](CC(=O)O)NC(=O)[C@@H]1CCCN1)C(C)C)C(C)C)[C@@H](C)CC)C(C)C)C(C)C)C(=O)N[C@@H](CCCCN)C(=O)NCC(=O)N[C@H](C(N)=O)C(C)C", "note": "[[Sar42]-bFGF(36-68)-NH2] (H-PDGRVD[Sar]VREKSDPHIKLQLQAEERGVVSIKGV-NH2)", "values": [{"measurement": "antagonist activity to both basal and bFGF-stimulated endothelial cell growth", "setting": "[1]; result in words", "result": "full antagonist activity"}]}, {"molecule": "N=C(N)NCCC[C@H](NC(=O)CNC(=O)[C@H](CC(=O)O)NC(=O)[C@@H]1CCCN1)C(N)=O", "note": "[bFGF(36-39)-NH2, H-Pro-Asp-Gly-Arg-NH2] (H-PDGR-NH2)", "values": [{"measurement": "ID50", "setting": "[1]", "result": "30 to 50", "unit": "µM"}, {"measurement": "reducing cell population, bFGF-stimulated endothelial cell growth", "setting": "[1]", "result": "about 54%"}, {"measurement": "reducing cell population, basal endothelial cell growth", "setting": "[1]", "result": "about 37%"}, {"measurement": "antagonist activity to both basal and bFGF-stimulated endothelial cell growth", "setting": "[1]; result in words", "result": "full antagonist activity"}]}, {"molecule": "H-Cys-Lys-Asn-Gly-Gly-Phe-Phe-T-Arg-Ile-His-Pro-Asp-NH2 [bFGF(25-37)-NH2]", "values": [{"measurement": "antagonist activity to basal endothelial cell growth", "setting": "[1]; basal growth only, result in words", "result": "some antagonist activity"}, {"measurement": "binding of the peptide to heparin", "setting": "[2]", "result": "fairly strong binding affinity"}, {"measurement": "binding affinity for BHK cells", "setting": "[3]", "result": "fair affinity"}]}, {"molecule": "H-FFFERLESNNYNTYRSRKYSSWYVALKR-NH2 [bFGF(93-120)-NH2, H-Phe-Phe-Phe-Glu-Arg-Leu-Glu-Ser-Asn-Asn-Tyr-Asn-Thr-Tyr-Arg-Ser-Arg-Lys- Tyr-Ser-Ser-Trp-Tyr-Val-Ala Leu-Lys-Arg-NH2]", "values": [{"measurement": "antagonist activity to both basal and bFGF-stimulated endothelial cell growth", "setting": "[1]; result in words", "result": "full antagonist activity"}, {"measurement": "binding of the peptide to heparin", "setting": "[2]", "result": "binds to heparin"}, {"measurement": "inhibition of bFGF binding to BHK cells (receptor)", "setting": "[3]", "result": "inhibits the binding"}]}, {"molecule": "H-FFLRIHPDGRVDGVREKSDP-NH2 [bFGF(30-49)-NH2, H-Phe-Phe-Leu-Arg-Ile-His-Pro-Asp-Gly-Arg-Val-Asp-Gly-Val-Arg-Glu-Lys-Ser- Asp-Pro-NH2]", "values": [{"measurement": "antagonist activity to both basal and bFGF-stimulated endothelial cell growth", "setting": "[1]; result in words", "result": "full antagonist activity"}]}, {"molecule": "H-FFLRIHPDGRVDGVREKSDPY-NH2 [[Tyr^50]-bFGF(30-50)-NHz, H-Phe-Phe-Leu-Arg-Ile-His-Pro-Asp-Gly-Arg-Val-Asp-Gly-Val-Arg-Glu-Lys-Ser- Asp-Pro-Tyr-NH2]", "values": [{"measurement": "reducing cell population, bFGF-stimulated endothelial cell growth", "setting": "[1]", "result": "about 6%"}, {"measurement": "reducing cell population, basal endothelial cell growth", "setting": "[1]", "result": "about 19%"}, {"measurement": "antagonist activity to both basal and bFGF-stimulated endothelial cell growth", "setting": "[1]; result in words", "result": "full antagonist activity"}]}, {"molecule": "H-HPDGRVDAVREKTDPH-NH2 [[Ala^42, Thr^47]-bFGF(35-50)-NH2, H-His-Pro-Asp-Gly-Arg-Val-Asp-Ala-Val-Arg-Glu-Lys-Thr-Asp-Pro-His-NH2]", "values": [{"measurement": "antagonist activity to both basal and bFGF-stimulated endothelial cell growth", "setting": "[1]; result in words", "result": "full antagonist activity"}]}, {"molecule": "H-HPDGRVDGVREKSDPH-NH2 [bFGF(35-50)-NH2, H-His-Pro-Asp-Gly-Arg-Val-Asp-Gly-Val-Arg-Glu-Lys-Ser-Asp-Pro-His-NH2]", "values": [{"measurement": "antagonist activity to both basal and bFGF-stimulated endothelial cell growth", "setting": "[1]; result in words", "result": "full antagonist activity"}]}, {"molecule": "H-LRIHPDGR-NH2 [bFGF(32-39)-NHz, H-Leu-Arg-Ile-His-Pro-Asp-Gly-Arg-NH2]", "values": [{"measurement": "reducing cell population, bFGF-stimulated endothelial cell growth", "setting": "[1]", "result": "about 11%"}, {"measurement": "reducing cell population, basal endothelial cell growth", "setting": "[1]", "result": "about 37%"}, {"measurement": "antagonist activity to both basal and bFGF-stimulated endothelial cell growth", "setting": "[1]; result in words", "result": "full antagonist activity"}]}, {"molecule": "H-LRIHPDGRVDGVREKSDPHIKL-NH2 [bFGF(32-53)-NHz, H-Leu-Arg-Ile-His-Pro-Asp-Gly-Arg-Val-Asp-Gly-Val-Arg-Glu-Lys-Ser-Asp-Pro- His-Ile-Lys-Leu-NH2]", "values": [{"measurement": "antagonist activity to both basal and bFGF-stimulated endothelial cell growth", "setting": "[1]; result in words", "result": "weak antagonist activity"}]}, {"molecule": "H-PDGRVDAVREKSDPHIKLQLQAEERGVVSIKGV-NH2 [[Ala^42]-bFGF(36-68)-NH2, H-Pro-Asp-Gly-Arg-Val-Asp-Ala-Val-Arg-Glu-Lys-Ser-Asp-Pro-His-Ile-Lys-Leu- Gln-Leu-Gln-Ala-Glu Glu-Arg-Gly-Val-Val-Ser-Ile-Lys-Gly-Val-NH2]", "values": [{"measurement": "antagonist activity to both basal and bFGF-stimulated endothelial cell growth", "setting": "[1]; result in words", "result": "full antagonist activity"}]}, {"molecule": "H-YCKNGGFFLRIHPDGRVDGVREKSDPHIKLQLQAEERGVVSIKGV-NH2 [bFGF(24-68)-NH2]", "values": [{"measurement": "ID50", "setting": "[1]", "result": "about 5 micromolar"}, {"measurement": "cell population reduced, bFGF-stimulated cell growth", "setting": "[1]; bFGF-stimulated cell growth, peptide about 100 μg/ml", "result": "about 92%"}, {"measurement": "cell population reduced, basal cell growth", "setting": "[1]; basal cell growth, peptide about 100 μg/ml", "result": "about 84%"}, {"measurement": "antagonist activity to both basal and bFGF-stimulated endothelial cell growth", "setting": "[1]; result in words", "result": "full antagonist activity"}, {"measurement": "binding of the peptide to heparin", "setting": "[2]", "result": "strong affinity"}]}, {"molecule": "H-YFLRIHPDGRVDGVREKSDPY-OH [[Tyr30,50]-bFGF(30-50)-OH, H-Tyr-Phe-Leu-Arg-Ile-His-Pro-Asp-Gly-Arg-Val-Asp-Gly-Val-Arg-Glu-Lys-Ser- Asp-Pro-Tyr-OH]", "values": [{"measurement": "antagonist activity to both basal and bFGF-stimulated endothelial cell growth", "setting": "[1]; result in words", "result": "full antagonist activity"}]}, {"molecule": "H-YNTYRSRKYSAWYVALKRTGQYKLGPKTGPGQKAILFLPMSAKS-NH2 [[Ala^113]-bFGF(103-146)-NH2]", "values": [{"measurement": "inhibition of bFGF binding to BHK cells (receptor)", "setting": "[3]", "result": "very strongly inhibits"}]}, {"molecule": "H-YNTYRSRKYSSWYVALKRTGQYKLGPKTGPGQKAILFLPMSAKS-NH2 [bFGF(103-146)-NH2, H-Tyr-Asn-Thr-Tyr-Arg-Ser-Arg-Lys-Tyr-Ser-Ser-Trp-Tyr-Val-Ala-Leu-Lys-Arg- Thr-Gly-Gln-Tyr-Lys-Leu-Gly -Pro-Lys-Thr-Gly-Pro-Gly-Gln-Lys-Ala-Ile-Leu-Phe-Leu-Pro-Met-Ser-Ala-Lys-Ser-NH2]", "values": [{"measurement": "inhibition of FGF binding to heparin", "setting": "[2]", "result": "very strongly inhibits"}, {"measurement": "inhibition of bFGF binding to BHK cells (receptor)", "setting": "[3]", "result": "very strongly inhibits"}]}, {"molecule": "H-YRSRKYSSWYVAL-NH2 [bFGF(106-118)-NH2, H-Tyr-Arg-Ser-Arg-Lys-Tyr-Ser-Ser-Trp-Tyr-Val-Ala-Leu-NH2]", "values": [{"measurement": "antagonist activity in mitogenic assays", "setting": "[1]; result in words", "result": "partial antagonist activity"}, {"measurement": "inhibition of bFGF binding to BHK cells (receptor)", "setting": "[3]", "result": "inhibits binding"}]}, {"molecule": "YCKNGGFFLRIHPDGRVDGVREKADPHIKLQLQAEERGVV-NH2 [[Ala^47]-bFGF(24-63)-NH2]", "values": [{"measurement": "antagonist activity to both basal and bFGF-stimulated endothelial cell growth", "setting": "[1]; result in words", "result": "full antagonist activity"}]}, {"molecule": "YCKNGGFFLRIHPDGRVDGVREKSDPHIKLQLQAEERGVV-NH2 [bFGF(24-63)-NH2, H-Tyr-Cys-Lys-Asn-Gly-Gly-Phe-Phe-Leu-Arg-Ile-His-Pro-Asp-Gly-Arg-Val-Asp- Gly-Val-Arg-Glu-LysSer-Asp-Pro-His-Ile-Lys-Leu-Gln-T-Gln-Ala -Glu-Glu-Arg-Gly-Val-Val-NH2]", "values": [{"measurement": "antagonist activity to both basal and bFGF-stimulated endothelial cell growth", "setting": "[1]; result in words", "result": "full antagonist activity"}]}, {"molecule": "YCKNGGFFLRIHPDGRVDGVREKSDPHIKLQLQAEERGVVSIKGV [bFGF(24-68)-OH]", "values": [{"measurement": "ID50", "setting": "[1]", "result": "about 5 micromolar"}]}, {"molecule": "YKNGGFFLRIHPDGRVDGVREKSDPHIKLQLQAEERGVVSIKGV-NH2 [[Tyr^25]-bFGF(25-68)-NH2]", "values": [{"measurement": "reducing cell population, bFGF-stimulated endothelial cell growth", "setting": "[1]", "result": "about 95%"}, {"measurement": "reducing cell population, basal endothelial cell growth", "setting": "[1]", "result": "about 86%"}, {"measurement": "antagonist activity to both basal and bFGF-stimulated endothelial cell growth", "setting": "[1]; result in words", "result": "full antagonist activity"}, {"measurement": "binding of the peptide to heparin", "setting": "[2]", "result": "very strong binding affinity"}, {"measurement": "binding affinity for BHK cells", "setting": "[3]", "result": "very strong binding affinity"}]}]}
